In ChEMBL document CHEMBL4138192, “Design, synthesis and evaluation of novel dihydrostilbene derivatives as potential anti-melanogenic skin-protecting agents” (Eur J Med Chem, 2018):
Calls of active or inactive are those of the source. No cut-off for these calls is given here.

Assays:
[1] = biological target: T1, Tyrosinase (Mus musculus) (UniProt P11344); assay: Inhibition of tyrosinase in mouse B16 cells assessed as effect on alpha-MSH-induced melanin formation at 25 uM after 24 hrs relative to control; assay type: cell-based; design: scale not given: the % may be the effect or the level left
T1 sequence (whole entry): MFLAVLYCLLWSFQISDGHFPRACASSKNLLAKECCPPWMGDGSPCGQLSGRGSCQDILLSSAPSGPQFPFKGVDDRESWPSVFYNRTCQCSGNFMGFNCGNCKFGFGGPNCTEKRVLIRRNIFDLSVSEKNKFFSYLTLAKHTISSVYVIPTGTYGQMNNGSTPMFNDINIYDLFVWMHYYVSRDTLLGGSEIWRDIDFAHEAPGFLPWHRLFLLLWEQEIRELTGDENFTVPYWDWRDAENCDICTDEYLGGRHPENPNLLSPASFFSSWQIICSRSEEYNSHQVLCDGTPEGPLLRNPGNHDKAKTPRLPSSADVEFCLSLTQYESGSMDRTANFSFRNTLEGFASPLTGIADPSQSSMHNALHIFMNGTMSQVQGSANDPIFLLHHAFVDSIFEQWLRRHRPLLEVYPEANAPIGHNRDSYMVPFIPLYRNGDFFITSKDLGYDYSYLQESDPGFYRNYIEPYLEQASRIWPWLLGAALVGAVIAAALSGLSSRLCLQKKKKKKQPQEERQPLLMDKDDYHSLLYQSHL

[2] = biological target: T2, Tyrosinase (Homo sapiens) (UniProt P14679); assay: Inhibition of tyrosinase in human A375 cells assessed as effect on alpha-MSH-induced melanin formation at 25 uM after 24 hrs relative to control; assay type: cell-based; design: scale not given: the % may be the effect or the level left
T2 sequence (whole entry): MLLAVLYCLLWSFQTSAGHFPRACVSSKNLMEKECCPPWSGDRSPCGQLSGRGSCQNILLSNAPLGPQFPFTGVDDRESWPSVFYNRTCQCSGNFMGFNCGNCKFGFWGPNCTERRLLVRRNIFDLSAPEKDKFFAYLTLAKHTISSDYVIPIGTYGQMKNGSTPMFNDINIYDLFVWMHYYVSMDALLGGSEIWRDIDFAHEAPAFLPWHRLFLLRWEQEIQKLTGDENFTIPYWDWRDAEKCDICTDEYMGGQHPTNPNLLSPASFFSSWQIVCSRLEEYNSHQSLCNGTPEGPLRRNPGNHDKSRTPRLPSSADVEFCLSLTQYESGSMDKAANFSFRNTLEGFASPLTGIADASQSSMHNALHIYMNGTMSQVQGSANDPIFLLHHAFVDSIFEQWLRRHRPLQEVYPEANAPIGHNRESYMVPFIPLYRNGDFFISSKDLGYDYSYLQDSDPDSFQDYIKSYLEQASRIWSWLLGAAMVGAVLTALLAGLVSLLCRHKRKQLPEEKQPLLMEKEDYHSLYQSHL

[3] = Growth inhibition of human A375 cells at 25 uM after 48 hrs by SRB assay relative to control; assay type: cell-based, A-375; details: read-out: GI
[4] = Growth inhibition of mouse B16 cells at 25 uM after 48 hrs by SRB assay relative to control; assay type: cell-based; details: read-out: GI
[5] = test system: A-375; assay: Inhibition of alpha-MSH-induced TRP-1 expression in human A375 cells at 25 uM after 24 hrs by Western blot method; assay type: functional, cell-based
[6] = test system: A-375; assay: Inhibition of alpha-MSH-induced TRP-2 expression in human A375 cells at 25 uM after 24 hrs by Western blot method; assay type: functional, cell-based
[7] = test system: A-375; assay: Inhibition of alpha-MSH-induced reactive oxygen species generation in human A375 cells at 25 uM after 4 hrs by DCFDA staining-based fluorescence assay; assay type: functional, cell-based
[8] = Antioxidant activity assessed as ABTS radical scavenging activity at 25 uM after 15 mins; assay type: functional; design: reference not given here
[9] = biological target: T2, Tyrosinase (Homo sapiens); assay: Inhibition of tyrosinase in human A375 cells at 25 uM using L-DOPA as substrate after 24 hrs by spectrophotometric method; assay type: cell-based
[10] = biological target: T1, Tyrosinase (Mus musculus); assay: Inhibition of tyrosinase in mouse B16 cells at 25 uM using L-DOPA as substrate after 24 hrs by spectrophotometric method; assay type: cell-based

| Compound | Activity [1] | Activity [2] | inhibition [9] | inhibition [10] | inhibition at 48 h, 25 µM [3] | inhibition at 48 h, 25 µM [4] | inhibition [5] | inhibition [6] | inhibition [7] | Activity [8] |
| --- | --- | --- | --- | --- | --- | --- | --- | --- | --- | --- |
| Oc1ccc(CCc2cc(O)cc(O)c2)cc1 [DIHYDRORESVERATROL] | 78.3% | 78% |  |  | 6.42% | 5.2% | Active | Active | Active | 4970 mg.equiv |
| Oc1ccc(/C=C/c2cc(O)cc(O)c2)cc1 [RESVERATROL] | 80.2% | 80.4% |  |  | 9.79% | 13.1% | Active | Active | Active |  |
| CCCOc1ccc(CCc2cc(OCCC)cc(OCCC)c2)cc1 | 94.7% | 85.1% |  |  | 3.36% | 1.34% |  |  |  | 30.2 mg.equiv |
| C=CCOc1ccc(CCc2cc(OCC=C)cc(OCC=C)c2)cc1 | 96.5% | 88.1% | Active | inactive | 6.83% | 1.31% |  |  |  | 119 mg.equiv |
| O=C1O[C@H]([C@@H](O)CO)C(O)=C1O [ASCORBIC ACID] | 83.7% | 75% |  |  | 8.63% | 4.94% | Active | Active |  |  |
| O=C(Oc1ccc(CCc2cc(OC(=O)C3CCCC3)cc(OC(=O)C3CCCC3)c2)cc1)C1CCCC1 | 95.9% | 97.2% |  |  | 14.3% | 9.69% |  |  |  |  |

The next lines start with results.

| Activity [1] | Activity [2] | inhibition [9] | inhibition [10] | Compound | inhibition at 48 h, 25 µM [3] | inhibition at 48 h, 25 µM [4] | inhibition [5] | inhibition [6] | inhibition [7] | Activity [8] |
| --- | --- | --- | --- | --- | --- | --- | --- | --- | --- | --- |
| 94.7% | 104% |  |  | COc1ccc(C(=O)Oc2ccc(CCc3cc(OC(=O)c4ccc(OC)cc4)cc(OC(=O)c4ccc(OC)cc4)c3)cc2)cc1 | 6.05% | 5.12% |  |  |  |  |
| 89.9% | 92.4% |  |  | O=C(OCc1ccccc1)Oc1ccc(CCc2cc(OC(=O)OCc3ccccc3)cc(OC(=O)OCc3ccccc3)c2)cc1 | 6.35% | 5.12% |  |  |  |  |
| 93% | 94.6% |  |  | CC(C)(C)C(=O)Oc1ccc(CCc2cc(OC(=O)C(C)(C)C)cc(OC(=O)C(C)(C)C)c2)cc1 | 9.53% | 6.91% |  |  |  |  |
| 87% | 85.2% |  |  | O=C(Oc1ccc(CCc2cc(OC(=O)c3ccccc3)cc(OC(=O)c3ccccc3)c2)cc1)c1ccccc1 | 4.55% | 4.92% |  |  |  |  |
| 96.2% | 98.9% | Active | inactive | CCCC(=O)Oc1ccc(CCc2cc(OC(=O)CCC)cc(OC(=O)CCC)c2)cc1 | 17.9% | 4.81% |  |  |  | 94.3 mg.equiv |
| 76% | 50.5% | Active | Active | C=CC(=O)Oc1ccc(CCc2cc(OC(=O)C=C)cc(OC(=O)C=C)c2)cc1 | 15.6% | 13.9% | Active | Active | Active | 15.9 mg.equiv |
| 99.2% | 93.4% |  |  | O=C(Oc1ccc(CCc2cc(OC(=O)c3ccc(Cl)cc3)cc(OC(=O)c3ccc(Cl)cc3)c2)cc1)c1ccc(Cl)cc1 | 21.5% | 5.26% |  |  |  |  |
